# Test results taken from patent publication US7417034B2, “Pharmaceutically active uridine esters” (Trommsdorff GmbH & Co. KG Arzeneimittel, priority 2001, dated 2008).
# pIC50: −log10 of the molar value. “Also recorded” adds a separate entry of the source. Where two headings read alike, the source gives them in different places.
# How the values were obtained:
# [1] = tested on: hippocampal pyramid cells; assay: in-vitro Hippocampus cuts: glucose-induced over-sensitiveness of pyramid cells (population spike); assay type: cell-based, rats; conditions: 30 mM glucose; for pIC50: amplitude of population spike, read-out: calculated IC50-value, reduction of glucose-induced over-sensitiveness; for concentration range of activity: population spike
# Description: The model used to determine the effect of the compounds of the present invention on treating diabetes and/or polyneuropathy comprises the use of in-vitro Hippocampus cuts for detecting the over-sensitiveness of pyramid cells due to the enhancement of the glucose concentration. Said over-sensitiveness could be antagonized dose-dependent by the use of a compound of the general formula (I).
# The Hippocampus cuts of rats present a validated model for determination of interaction between a drug substance which is in direct contact with neuronal tissue. The interaction between a pharmaceutically active compound and the brain tissue can be examined directly, because of the maintenance of the three dimensional structure of the tissue within the in-vitro Hippocampus cut. Said compounds act on a special population of nerve cells, the pyramid cells of the Hippocampus. It is known that the synapse between pyramid cells and Schaffer-collaterals (which can be electrically stimulated) use the neurotransmitter glutamate for the process of signal transduction. The result of the electric stimulation, the so called population spike, represents the amount of activated pyramid cells. Other known models allow the in-vitro determination of a neuronal network only within a time frame of up to 8 hours. The advantage of this model is that neuronal network can be analyzed in-vitro over a much longer period after chemical or electric provocation of the cells. The cells are brought to an elevated level of stimulation which allows a long term measurement of pharmacologically active compounds under patho-physiologic conditions (W. Dimpfel et al., Antimicrobial Agents and Chemotherapy 1991, 1142-1146; W. Dimpfel et al., Eur. J. Med. Res. 1996, 1, 523-527).
# Within the present method the level of stimulation was elevated by the use of an increased concentration of glucose in the superfusion medium in order to measure the antagonistic effect of the compounds of the present invention. Because of the fact that α-lipoic acid had been applied to this method (W. Dimpfel et al., Eur. J. Med. Res. 1996, 1, 523-527), compound 5′ was selected as a close related compound in order to produce reasonable results when comparing α-lipoic acid and uridine with compound 5′. Thus, α-lipoic acid and uridine were selected as reference.
# 21 adult male CD rats had been used within the present studies. The Hippocampus was isolated after anesthetization and exsanguination of the test animals. The middle part of the Hippocampus was fixed by means of a glue in phosphate-buffered saline (NaCl: 124 mM, KCl: 5 mM, CaCl2: 2 mM, MgSO4: 2 mM, NaH2PO4: 1.25 mM, NaHCO3: 26 mM, glucose: 10 mM; control solution: ACSF; Carl Roth, Karlsruhe, Germany). The Hippocampus was subsequent cut into slides of […] by means of a Vibratom (Rhema Labortechnik). The Hippocampus cuts were stored at least one hour before the test runs in an incubation chamber under carbogen (S. J. Schiff, G. G. Somjen, Brain Research 1985, 345, 279-284).
# The experiment was carried out in a so called “Base Unit with Haas Top” (Medical Systems Corporation, U.S.A.) at a temperature of 35° C. according to the protocol of H. L. Haas and R. W. Greene (Neurotransmitter and cortical function; ed. M. Avoli, T. A. Reader, R. W. Dykes and P. Gloor, pp. 483-494, Plenum Publishing Corp.). The Hippocampus cut was placed on a piece of gauze and perfused by means of peristaltic pumps. The test apparatus was flushed with carbogen (flow rate: 200 ml per hour) in order to maintain the necessary oxygen supply.
# The CA2-region was stimulated by means of a stimulus generator (laboratory computer, Pro Science) and a bipolar concentric steel electrode (Rhodes Medical Systems, U.S.A.). A pulse width of 200 μs was used and the amperage was constantly kept at 200 μA. The stimulus generator released four single stimulation signals within intervals of 20 seconds which released a total number of four population spikes in the Hippocampus cut. […]
# [2] = tested on: permanent MCA occlusion in NMRI mice; conditions: for effect on infarct area (in words): versus controls; for infarct area, Mean: evaluated 2 days after, vehicle only 29.89
# Description: The neuroprotective effects of α-lipoic acid and more pronounced of dihydrolipoic acid are well known (P. Wolz, J. Krieglstein, Lipoic Acid in Health and Disease, New York, Basel, Hong Kong, Marcel Dekker Inc., 1997, pp. 205-225). Thus, dihydrolipoic acid was chosen as a positive control for comparison reasons.
# Permanent middle cerebral artery (MCA) occlusion was performed in male NMRI mice (12 to 17 animals per group) according to the method described by Welsh et al. (J. Neurochem. 1987, 846-851). Briefly, after the mice were anesthetized with tribromoethanol (600 mg/kg intraperitoneally), a small hole was drilled in the skull to expose the middle cerebral artery. The stem of the middle cerebral artery and both branches were permanently occluded by electrocoagulation. Body temperature was maintained at 37° C.±1° C. with a heating lamp during the surgical procedure. Afterwards, the mice were kept at an environmental temperature of 30° C. for 2 hours after MCA occlusion.
# For histologic evaluation, the mice were anesthetized again with tribromoethanol and perfused intraperitoneally with a 1.5% solution of neutral red (0.5 ml) 2 days after middle cerebral artery occlusion. The brains were removed and stored in a fixative (4% formalin in phosphate buffer solution, pH 7.4) for 24 hours.
# The tissue on the brain surface unstained by neutral red was determined (in square millimeters) as infarcted surface area by means of an image analyzing system (Kontron, Eching, Germany) according to the publication of C. Backhauβ.
# The injection of compound 5′, dihydrolipoic acid, and the vehicle only was performed intraperitoneally 1 hour before MCA occlusion. Compound 5′ and dihydrolipoic acid were dissolved in 25% macrogol 400 (vehicle). The injected volume was always 0.25-0.30 ml per mouse. Doses of 100, 150, and 500 mg/kg compound 5′ and 150 mg/kg dihydrolipoic acid were used. The control group received the vehicle (0.25-0.30 ml 25% macrogol 400 per mouse) only.
# The differences between compound 5′-treated, dihydrolipoic acid-treated, and vehicle-treated animals were evaluated statistically according to the ANOVA and DUNCAN test.
# [3] = tested on: dopamine and DOPAC concentration in the Striatum; assay: Dopamine and DOPAC concentration in rat Striatum, sodium malonate neurotoxicity model; assay type: in vivo, Wistar rats
# Description: (§1) This example was selected to determine the effect of the compounds of the present invention on the concentration of dopamine its metabolite 3,4-dihydroxyphenyl acetic acid (DOPAC) and 5-hydroxytryptamine (5-HT or Serotonin) and its metabolite 5-hydroxyindol acetic acid (5-HIAA) in the substantia nigra and the Striatum of Wistar rats (Charles River, Sulzbach Rosenberg).
# (§2) Said two brain regions were selected in order to examine dopaminergic neurons, because it is well known that said neurons are sensitive to neurotoxines which may cause M. Parkinson, Alzheimer, and Chorea Huntington. The method as described below was used to determine degenerative processes. Sodium malonate was used as a neurotoxic substance within said method.
# It is known that sodium malonate increases the release von dopamine in the Striatum of the test animals. Groups of six Wistar rats each have been used as test animals. Thus, the dopamine concentration can be used as an indicator in order to determine the harmful effect of neurotoxines.
# 100 mg of compound 5′ were dissolved in 5 ml 50% propan-1,2-diol (Merck, Darmstadt). Four 5 ml portions of compound 5′ were administered intraperitoneal to the test animals. The first portion was administered in the evening of the first test day, the second portion during the next morning, the third portion in the evening of the second test day and the late portion during the morning of the third test day. Thirty minutes after the last application of compound 5′ 2 μmol sodium malonate dissolved in physiologic sodium chloride solution were injected into the left Striatum by means of a precision pump (flow rate 0.5 μl/min.) after having anesthetized the rats (Ketamin: 80 mg/kg and Xylasin: 6-10 mg/kg).
# (§3) Four days after sodium malonate application, the Striatum and the treated and untreated part of the substantia nigra was separately excised, weighted, homogenized with perchloric acid, and centrifuged. Aliquots of the supernatants were subsequently subjected to HPLC and by the means of HPLC-ELCD the amount of dopamine, DOPAC, 5-HT, 5-HIM, and 3-methoxytyramine was […] measured.
# [4] = tested on: 5-HT and 5-HIAA level in substantia nigra; assay: 5-HT and 5-HIAA level in rat substantia nigra; assay type: in vivo, Wistar rats; conditions: four i.p. portions
# Description: as §1, §2
# 100 mg of compound 5′ were dissolved in 5 ml 50% propan-1,2-diol (Merck, Darmstadt). Four 5 ml portions of compound 5′ were administered intraperitoneal to the test animals. […]
# as §3
# [5] = 150 mg/kg intraperitoneally 1 hour before MCA occlusion
# [6] = compound alone, four i.p. portions, p<0.05
# [7] = 2 μmol sodium malonate injected into left Striatum, four days after, p<0.001
structure (smiles),measurement,setting,value
O=c1ccn([C@@H]2O[C@H](CO)[C@@H](O)[C@H]2O)c(=O)[nH]1 [uridine],pIC50,[1]; Rattus norvegicus,4.40
same,reduction of the elevated stimulation level / over-sensitiveness (in words),[1]; rat Hippocampus cuts,able to reduce dose-dependent the elevated stimulation level; also recorded: only weaker effects; also recorded: much weaker effects
"O=C(O)CCCC[C@@H](S)CCS (racemic) [dihydrolipoic acid, reference compound]",effect on infarct area (in words),[2]; 150 mg/kg i.p.,no effect at all
same,"infarct area, Mean",[2]; [5],27.94 square millimeters
"O=C(CCCC[C@@H]1CCSS1)OC[C@H]1O[C@@H](n2ccc(=O)[nH]c2=O)[C@H](O)[C@@H]1O [Compound R-5, (2′R,3R,3′S,4′R,5′R)-5-[1,2]Dithiolan-3-yl-pentanoic acid 5′-(2,4-dioxo-3,4-dihydro-2H-pyrimidine-1-yl)-3′,4′-dihydroxy-tetrahydrofuran-2′-ylmethyl ester]",pIC50,[1]; rat Hippocampus cuts,5.10
same,concentration range of activity,[1]; rat Hippocampus cuts,1 to 15 µM
"O=C(CCCCC(S)CCS)OC[C@H]1O[C@@H](n2ccc(=O)[nH]c2=O)[C@H](O)[C@@H]1O (stereo partly drawn) [Compound 5′, (2′R,3′S,4′R,5′R)-6,8-Dimercapto-octanoic acid 5′-(2,4-dioxo-3,4-dihydro-2H-pyrimidine-1-yl)-3′,4′-dihydroxy-tetrahydrofuran-2′-ylmethyl ester]",compensation of malonate-induced dopamine depletion in rat striatum (in words),"[3]; FIG. 4, relatively low concentrations",can almost be compensated
same,change of the concentration of DOPAC in the Striatum,[3]; [6],+10%
same,change of the concentration of dopamine in the Striatum,[3]; [6],+18%
same,more dopamine in comparison to the application of malonate only,[3]; compound i.p. together with 2 μmol sodium malonate into left Striatum,+44%
same,"infarct area, Mean",[2]; 100 mg/kg intraperitoneally 1 hour before MCA occlusion,26.22 square millimeters
same,"infarct area, Mean",[2]; [5],27.00 square millimeters
same,effect on infarct area (in words),[2]; 500 mg/kg i.p.,no longer statistically reduced; also recorded: only a slight neuroprotective effect
same,"infarct area, Mean",[2]; 500 mg/kg intraperitoneally 1 hour before MCA occlusion,28.24 square millimeters
same,effect on infarcted area (in words),"[2]; lowest dose, 100 mg (100 mg/kg) i.p., versus vehicle",significantly reduced the infarcted area; also recorded: most pronounced
same,toxic effects in mice,"[2]; mice of the MCA occlusion study, 100-500 mg/kg i.p.",no toxic effects could be detected
same,5-HT concentration in rat substantia nigra (in words),[4]; FIG. 5a,significantly increase; also recorded: increased dramatically
same,5-HIAA level in rat substantia nigra (in words),[4]; FIG. 5b,significantly increase; also recorded: increased dramatically
same,reduction of the elevated stimulation level / over-sensitiveness (in words),[1]; rat Hippocampus cuts,able to reduce dose-dependent the elevated stimulation level; also recorded: most effectively treated; also recorded: able to significantly reduce the increased over-sensitiveness
same,pIC50,[1]; rat Hippocampus cuts,5.30
same,concentration range of activity,[1]; rat Hippocampus cuts,1 to 25 µM
"O=C([O-])CC(=O)[O-].[Na+].[Na+] [malonate, sodium malonate, reference compound]",change of the concentration of DOPAC,[3]; [7],−30%
same,change of the concentration of dopamine,[3]; [7],−44%
"O=C(CCCC[C@H]1CCSS1)OC[C@H]1O[C@@H](n2ccc(=O)[nH]c2=O)[C@H](O)[C@@H]1O [Compound S-5, (2′R,3S,3′S,4′R,5′R)-5-[1,2]Dithiolan-3-yl-pentanoic acid 5′-(2,4-dioxo-3,4-dihydro-2H-pyrimidine-1-yl)-3′,4′-dihydroxy-tetrahydrofuran-2′-ylmethyl ester]",pIC50,[1]; rat Hippocampus cuts,5.40
same,concentration range of activity,[1]; rat Hippocampus cuts,1 to 10 µM
"O=C(O)CCCCC1CCSS1 (stereo not drawn) [α-lipoic acid, reference compound]",reduction of the elevated stimulation level / over-sensitiveness (in words),[1]; rat Hippocampus cuts,able to reduce dose-dependent the elevated stimulation level; also recorded: only weaker effects; also recorded: much weaker effects
same,pIC50,[1]; rat Hippocampus cuts,~3.70
same,concentration range of activity,[1]; rat Hippocampus cuts,≤ 400 µM
